Data taken from US12479816B2, “20-HETE formation inhibitors” (UNIVERSITY OF PITTSBURGH—OF THE COMMONWEALTH SYSTEM OF …, priority 2019, dated 2025).
Read-outs that look alike come from different tables or passages of the source.

Key:
rCYP4F2 = target: T1, rCYP4F2 (Homo sapiens, UniProt P78329); experiment: Inhibition of 20-HETE formation at 250 or 500 nM in rCYP4F2 incubations; format: biochemical; settings: rCYP4F2 25 pmol/mL; for inhibition at 0.5 µM: 500 nM compound, read-out: rCYP4F2 % inh. @ 500 nM; for inhibition at 0.25 µM: 250 nM compound, read-out: rCYP4F2 % inh. @ 250 nM
T1 sequence (P78329 5-520): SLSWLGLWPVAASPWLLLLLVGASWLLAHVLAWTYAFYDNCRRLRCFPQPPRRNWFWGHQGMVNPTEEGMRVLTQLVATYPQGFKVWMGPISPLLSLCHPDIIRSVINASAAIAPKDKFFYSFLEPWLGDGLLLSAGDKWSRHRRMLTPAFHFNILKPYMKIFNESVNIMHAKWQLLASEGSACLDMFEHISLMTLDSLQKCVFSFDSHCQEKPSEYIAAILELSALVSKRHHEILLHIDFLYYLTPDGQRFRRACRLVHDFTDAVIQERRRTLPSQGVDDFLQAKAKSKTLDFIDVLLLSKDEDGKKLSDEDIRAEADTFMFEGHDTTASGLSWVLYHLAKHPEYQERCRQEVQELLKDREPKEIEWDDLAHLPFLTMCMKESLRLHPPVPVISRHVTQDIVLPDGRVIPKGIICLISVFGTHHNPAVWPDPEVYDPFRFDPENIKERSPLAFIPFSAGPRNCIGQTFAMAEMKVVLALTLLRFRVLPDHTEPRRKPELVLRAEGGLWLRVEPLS
Method in brief: (§1)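 Protein 300 μg/ml (microsomes) / 25 pmol/mL (rCYP4F2); AA 100 μM; NADPH 1 mM start; KPi 0.12 M + 5 mM MgCl2; 20 min, 37° C. Read-out: 20-HETE by UPLC-MS/MS (d6 IS), % of vehicle, n=3.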

[1] = HLM stability determination; format: in vitro ADME, human; settings: HLM 500 μg/ml, 1 μM compound, NADPH, relative to 0 min
Method: HLM stability determinations shown in Table 3 were obtained as follows. Microsomal incubates contained HLM (500 μg/ml), test compounds (1 μM) and NADPH (1.3 mM) in a 1 ml total volume of microsomal incubation buffer (0.12 M potassium phosphate buffer containing 5 mM magnesium chloride). Reaction was started by adding NADPH to the incubates and was carried out at 37° C. in a shaking water bath for 60 min. At 0, 15, 30, 45, 60 min, a 50 μl aliquot of incubates was taken out and reaction was stopped by adding aliquot into 200 μl ice-cold acetonitrile. After centrifugation at 14000×g for 5 min, 200 μl supernatant was taken out for UPLC-MS/MS analysis as described above. Values at 0 min were used as corresponding control for test compounds. Varapamil, metoprolol, and warfarin, categorized as fast, moderate and slow metabolism, were used as positive control. Incubates without NADPH group served as negative control.

[2] = tested on: 20-HETE formation (CYP4) in RKM; experiment: Inhibition of 20-HETE formation at 250 or 500 nM in RKM microsomal incubations; format: biochemical, rat; settings: RKM 300 μg/ml; for RKM % inh. @ 500 nM: 500 nM compound; for RKM % inh. @ 250 nM: 250 nM compound
Method in brief: as §1

[3] = tested on: 20-HETE formation (CYP4) in RLM; experiment: Inhibition of 20-HETE formation at 250 or 500 nM in RLM microsomal incubations; format: biochemical, rat; settings: RLM 300 μg/ml; for RLM % inh. @ 500 nM: 500 nM compound; for RLM % inh. @ 250 nM: 250 nM compound
Method in brief: as §1

[4] = Turbidometric solubility determination; format: physicochemical; settings: PBS with 1% DMSO, aqueous buffer, kinetic from dmso stock, room temperature
Method in brief: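 Precipitation was detected as a significant rise in absorbance at 620 nm over background, and this point set the maximum solubility. Compound was tested in PBS with 1% DMSO at final concentrations from 0 to 600 μM, in triplicate, after 2 h of shaking at room temperature.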

| inhibition at 0.5 µM (rCYP4F2) | Stability HLM % @ 30 min [1] | RKM % inh. @ 500 nM [2] | RLM % inh. @ 500 nM [3] | solubility at 2 h ([4]; OD620, read-out: Max Solub) | solubility at 2 h ([4]; read-out: Solubility_ug/mL) | inhibition at 0.25 µM (rCYP4F2) | RKM % inh. @ 250 nM [2] | RLM % inh. @ 250 nM [3] | SMILES |
| --- | --- | --- | --- | --- | --- | --- | --- | --- | --- |
| 67.7% | 92% | 4.90% | 25.90% | 35 µM | 9 µg/mL | – | – | – | COc1ccc(C2CCN(c3cn[nH]c3)CC2)cc1 [Compound 20, 4-(4-Methoxyphenyl)-1-(1H-pyrazol-4-yl)piperidine] |
| 77% | 85% | 0.00% | 2.40% | 505 µM | 122 µg/mL | – | – | – | c1ccc(CC2CCN(c3cn[nH]c3)CC2)cc1 [Compound 3, 4-Benzyl-1-(1H-pyrazol-4-yl)piperidine] |
| 58% | – | 43.00% | 52.00% | > 600 µM | 179 µg/mL | – | – | – | CC(=O)N(C)c1ccc(C2CCN(c3cn[nH]c3)CC2)cc1 [Compound 28, N-(4-(1-(1H-Pyrazol-4-yl)piperidin-4-yl)phenyl)-N-methylacetamide] |
| 96.2% | 91% | – | 49.60% | > 600 µM | – | – | – | – | O=C1CCCN1Cc1ccc(C2CCN(c3cn[nH]c3)CC2)cc1 [Compound 83, 1-(4-(1-(1H-Pyrazol-4-yl)piperidin-4-yl)benzyl)pyrrolidin-2-one] |
| 41.4% | 89% | 0.00% | 31.80% | 106 µM | 27.3 µg/mL | – | – | – | COc1ccc(C2CCN(c3ccn[nH]3)CC2)cc1 [Compound 19, 4-(4-Methoxyphenyl)-1-(1H-pyrazol-5-yl)piperidine] |
| 97% | 85% | – | 64.30% | 117 µM | – | – | – | – | Clc1ccc(CC2CCN(c3cn[nH]c3)CC2)cc1 [Compound 93, 4-(4-Chlorobenzyl)-1-(1H-pyrazol-4-yl)piperidine] |
| 81.2% | 95% | – | 42.90% | 74 µM | – | – | – | – | O=C1CCCN1c1ccc(C2CCN(c3cn[nH]c3)CC2)cc1 [Compound 100, 1-(4-(1-(1H-Pyrazol-4-yl)piperidin-4-yl)phenyl)pyrrolidin-2-one] |
| – | 91% | – | – | > 600 µM | 137 µg/mL | 53.6% | 0.00% | 12.00% | c1ccc(C2CCN(c3ccn[nH]3)CC2)cc1 [Compound 54, 4-Phenyl-1-(1H-pyrazol-5-yl)piperidine] |
| 86% | – | 36.00% | 44.00% | > 600 µM | 145 µg/mL | – | – | – | Cc1cccc(C2CCN(c3cn[nH]c3)CC2)c1 [Compound 34, 1-(1H-Pyrazol-4-yl)-4-(m-tolyl)piperidine] |
| – | 100% | – | – | 121 µM | 28 µg/mL | 78.5% | 18.00% | 27.40% | c1ccc(C2CCN(c3cn[nH]c3)CC2)cc1 [Compound 1, 4-Phenyl-1-(1H-pyrazol-4-yl)piperidine] |
